Tests used:
PC12 cells [1] = assay: 6-OHDA-induced neurotoxicity in PC12 cells, MTT cell viability; type: cell-based, rat; settings: 6-OHDA with or without PACA, 24 hours
Method: Neurotoxin 6-hydroxydopamine (6-OHDA) is widely used to induce the cell model of human Parkinsonism. PC12 cells were treated with 6-OHDA with or without PACA for 24-hours, the cell viability was assessed by the colorimetric MTT assay. The relative cell viability was plotted against the concentrations of PACA. On the other hand, primary midbrain neurons were isolated from 17-day-old Sprague Dawley (SD) rat embryos. The midbrain neurons were treated with 6-OHDA with or without PACA for 12-hours, the cell viability was assessed by the colorimetric MTT assay. Alternatively, the neurons were stained with 5 μM of Hoechst 33342 and 1 μM of PI in the differentiation medium at 37° C. for 30 min. The images were captured on a Zeiss fluorescence microscope. (A) MTT assay of the cell viability in PC 12 cells. […] PI-positive and Hoechst 33342-stained neurons were counted under a fluorescence microscope. […]
Neurotoxin 6-hydroxydopamine (6-OHDA) is widely used to induce the cell model of human Parkinsonism. PC12 cells were treated with 6-OHDA with or without PACA for 24-hours, the cell viability was assessed by the colorimetric MTT assay. […] The midbrain neurons were treated with 6-OHDA with or without PACA for 12-hours, the cell viability was assessed by the colorimetric MTT assay. […] The images were captured on a Zeiss fluorescence microscope.

PC12 cells [2] = assay: 6-OHDA-induced superoxide production, DHE staining; type: cell-based, rat; settings: 6-OHDA with PACA 5, 10, 20 and 50 μM
Method: After the treatment with 6-OHDA alone or in combination with PACA at different concentrations, PC12 cells were stained with a fluorescent probe dihydroethidium (DHE) for the production of superoxide anion (A & B) and another fluorescent probe DAF-FM Diacetate for the production of nitric oxide ([…]), respectively. (A) Representative images of DHE-stained cells. 6-OHDA, 200 μM; PACA, 50 (B) PACA inhibited 6-OHDA-induced formation of superoxide ions. PC12 cells were treated with 6-OHDA alone or in combination with PACA for 6 h and subsequently stained with a probe DHE. The images were captured under a fluorescence microscope. The fluorescence was determined by ImageJ software. (C) Representative images of DAF-FM DA-stained cells. 6-OHDA, 200 μM; PACA, 50 μM. (D) PACA inhibited 6-OHDA-induced NO production. PC12 cells were treated with 6-OHDA alone or in combination with PACA for 6 h and subsequently stained with a probe DAF-FM DA. The images were captured under a fluorescence microscope. The fluorescence was determined by ImageJ software.
PC12 cells were treated with 6-OHDA alone or in combination with PACA at the concentrations of 5, 10, 20 and 50 μM. At the end of treatment, PC12 cells were then stained with a fluorescent probe dihydroethidium (DHE) for the production of superoxide anion and another fluorescent probe DAF-FM Diacetate for the production of nitric oxide, respectively.

[3] = tested on: primary rat midbrain neurons; assay: 6-OHDA-induced neurotoxicity in primary midbrain neurons, MTT and Hoechst 33342/PI staining; type: cell-based; settings: 6-OHDA with or without PACA, MTT
heme oxygenase-1 (HO-1) = assay: HO-1 induction in PC12 cells, Western blot; type: cell-based, rat; settings: PACA 5 to 100 μM for 24 hours or 20 μM for 3, 6, 12, 24 hours
Method: Induction of HO-1 expression is a key mechanism underlying the neuritogenic effects of PACA. (A & B) Western blot analysis of HO-1 induction. Following PACA treatment at different concentrations (A) and for different time points (B), the cellular proteins were isolated and analyzed by Western blotting for HO-1 expression. GAPDH was analyzed as the control of protein loading. (C) PACA stimulated neurite outgrowth via HO-1-mediated mechanism. PC12 cells were treated with NGF (2 ng/ml) in combination with PACA (5 μM, 20 μM) in presence or absence of HO-1 inhibitor SnPP for 72 hours. Cells were stained by neurite outgrowth staining kit and imaged under a fluorescence microscope. (D) Role of HO-1 induction in the neuritogenic activity of PACA. The images captured in Panel C were analyzed for the number of neurite bearing cells. The cells bearing neurites longer than 20 μm were counted. The values represent means±SD (n=3). **, p<0.01 (+SnPP vs −SnPP).
It is well-known that direct modification of Keap1 causes the dissociation of the Nrf2-Keap1 complex and subsequent expression of heme oxygenase-1 (HO-1). Following the treatment with PACA at the concentrations ranging from 5 to 100 μM for 24 hours or at the concentration of 20 μM for 3, 6, 12, 24 hours, PC12 cells were analyzed by Western blotting for HO-1 induction.

C#CCNC(=O)/C=C/c1ccc(O)c(O)c1 [PACA, (E)-3-(3,4-dihydroxyphenyl)-N-(prop-2-yn-1-yl)acrylamide]
6-OHDA neurotoxicity in PC12 cells (PC12 cells [1]): attenuated 6-hydroxydopamine (6-OHDA) neurotoxicity
6-OHDA-induced formation of superoxide ions (PC12 cells [2]): significantly attenuated
6-OHDA neurotoxicity in primary rat midbrain neurons [3]: attenuated 6-hydroxydopamine (6-OHDA) neurotoxicity
HO-1 expression (heme oxygenase-1 (HO-1)): induced HO-1 expression in a time- and concentration-dependent manner
